Structures can show the parent of a compound that is named as a salt.
Assays:
Assay type in all cases: cell-based
[1] = system: NIH3T3/EGFR_E746-A750_deletion; experiment: Cell proliferation assay (CellTiter-Glo), NIH3T3/EGFR_E746-A750_deletion; conditions: Mus musculus, NIH3T3, 120 h, 3T3 cell line, three to five days of compound treatment, read-out: 3T3 del IC50
Procedure: (§1) Cell proliferation was measured using the CellTiter-Glo® Luminescent Cell Viability Assay. The assay involves the addition of a single reagent (CellTiter-Glo® Reagent) directly to cells cultured in serum-supplemented medium. The assay uses this one-step addition to induce cell lysis and generate a luminescent signal proportional to the amount of ATP present which is directly proportional to the number of metabolically active cells present in culture. The following cell lines were evaluated in this assay: NIH3T3/EGFR_L858R, NIH3T3/EGFR_E746-A750_deletion, NIH3T3/EGFR L858R+T790M, NIH3T3/EGFR_E746-A750_deletion+T790M, PC-9, PC9-DRH, NCI-H1975, and NCI-H3255. NIH/3T3 parental cells, NCI-H1975, and NCI-H3255 were purchased from the American Type Culture Collection (Manassas, Va.), and PC-9 cells were obtained from Japan. All cells were cultured according to recommendations. NIH/3T3 cells were grown in DMEM (Invitrogen, Carlsbad, Calif.) supplemented with 10% newborn calf serum (Invitrogen), and NIH3T3/EGFR mutant cells were grown in complete media with 5 μg/mL puromycin (Invitrogen). PC-9, NCI-H1975, and NCI-H3255 were grown in RPMI (Invitrogen, Carlsbad, Calif.) supplemented with 10% FBS (Sigma, St Louis, Mo.), and PC9-DRH cells were grown in complete media with 2 uM PF-00299804. Plasmids (pLPCX) with various EGFR constructs were made by GenScript (Piscataway, N.J.), and stable pools of NIH/3T3 cells expressing these constructs were made at Pfizer La Jolla. PC9-DRH cells were generated at Pfizer La Jolla by exposing cells to increasing concentrations of PF-00299804. Cells were plated in complete culture media (3000-5000 cells/well, 50 μl/well) on the bottom of white clear-bottom tissue culture treated microtiter plates (#3610, Corning Inc, Corning, N.Y.) and allowed to adhere overnight at 37° C., 5% CO2. The following day, compound dilution plates were prepared in 96 well clear V-bottom 0.5 mL polypropylene block plates (#3956, Corning, Inc). All cell lines were not evaluated for each compound. Each compound evaluated was prepared as a DMSO stock solution (10 mM). Compounds were tested in duplicate on each plate, with an 11-point serial dilution curve (1:3 dilution). Compound treatment (50 μl) was added from the compound dilution plate to the cell plate. The highest compound concentration was 1 or 10 μM (final), with a 0.3% final DMSO (#D-5879, Sigma, St Louis, Mo.) concentration. Plates were then incubated at 37° C., 5% CO2. After three to five days of compound treatment, CellTiter-Glo® Reagent (#G7573, Promega, Madison, Wis.) was prepared in one of two ways. If thawing a frozen aliquot of CellTiter-Glo® Reagent, the aliquot was thawed and equilibrated to room temperature prior to use while keeping it protected from light. Alternatively, new bottles of CellTiter-Glo® Buffer and CellTiter-Glo® Substrate were thawed and equilibrated to room temperature prior to use. CellTiter-Glo® Buffer (100 mL) was transferred into the amber bottle containing CellTiter-Glo® Substrate to reconstitute the lyophilized enzyme/substrate mixture, forming the CellTiter-Glo® Reagent. The reconstituted reagent was mixed by gently inverting the contents to obtain a homogeneous solution, and went into solution easily in less than one minute. Any unused reconstituted CellTiter-Glo® Reagent was immediately aliquoted and frozen at −20° C., protected from light. Cell plates were equilibrated at room temperature for approximately 30 minutes. An equivolume amount of CellTiter-Glo® Reagent (100 μL) was added to each well. Plates were mixed for two minutes on an orbital shaker to induce cell lysis, and then allowed to incubate at room temperature for 10 minutes to stabilize the luminescent signal. Luminescence was recorded using the PerkinElmer EnVision Excite Multilabel Reader used for endpoint reading for Luminescence detection (Waltham, Mass.). Data were analyzed using a four-parameter fit in Microsoft Excel. […]

EGFR E746-A750 deletion = EGFR E746-A750 deletion (Homo sapiens, UniProt P00533, DEL746-750); experiment: pEGFR Y1068 ELISA assay, NIH3T3/EGFR_E746-A750 deletion cells; conditions: 3T3 Del cells, 2 hrs compound treatment; read-out: ELISA7E 3T3 Del IC50;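 further: sandwich ELISA on cell lysates detecting phospho-EGFR at Tyr1068, compounds run as 11-point threefold dilution series in duplicate, IC50 from inhibition of this phosphorylation signal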
Sequence of EGFR E746-A750 deletion (P00533 with tags, fused parts or gaps DEL746-750): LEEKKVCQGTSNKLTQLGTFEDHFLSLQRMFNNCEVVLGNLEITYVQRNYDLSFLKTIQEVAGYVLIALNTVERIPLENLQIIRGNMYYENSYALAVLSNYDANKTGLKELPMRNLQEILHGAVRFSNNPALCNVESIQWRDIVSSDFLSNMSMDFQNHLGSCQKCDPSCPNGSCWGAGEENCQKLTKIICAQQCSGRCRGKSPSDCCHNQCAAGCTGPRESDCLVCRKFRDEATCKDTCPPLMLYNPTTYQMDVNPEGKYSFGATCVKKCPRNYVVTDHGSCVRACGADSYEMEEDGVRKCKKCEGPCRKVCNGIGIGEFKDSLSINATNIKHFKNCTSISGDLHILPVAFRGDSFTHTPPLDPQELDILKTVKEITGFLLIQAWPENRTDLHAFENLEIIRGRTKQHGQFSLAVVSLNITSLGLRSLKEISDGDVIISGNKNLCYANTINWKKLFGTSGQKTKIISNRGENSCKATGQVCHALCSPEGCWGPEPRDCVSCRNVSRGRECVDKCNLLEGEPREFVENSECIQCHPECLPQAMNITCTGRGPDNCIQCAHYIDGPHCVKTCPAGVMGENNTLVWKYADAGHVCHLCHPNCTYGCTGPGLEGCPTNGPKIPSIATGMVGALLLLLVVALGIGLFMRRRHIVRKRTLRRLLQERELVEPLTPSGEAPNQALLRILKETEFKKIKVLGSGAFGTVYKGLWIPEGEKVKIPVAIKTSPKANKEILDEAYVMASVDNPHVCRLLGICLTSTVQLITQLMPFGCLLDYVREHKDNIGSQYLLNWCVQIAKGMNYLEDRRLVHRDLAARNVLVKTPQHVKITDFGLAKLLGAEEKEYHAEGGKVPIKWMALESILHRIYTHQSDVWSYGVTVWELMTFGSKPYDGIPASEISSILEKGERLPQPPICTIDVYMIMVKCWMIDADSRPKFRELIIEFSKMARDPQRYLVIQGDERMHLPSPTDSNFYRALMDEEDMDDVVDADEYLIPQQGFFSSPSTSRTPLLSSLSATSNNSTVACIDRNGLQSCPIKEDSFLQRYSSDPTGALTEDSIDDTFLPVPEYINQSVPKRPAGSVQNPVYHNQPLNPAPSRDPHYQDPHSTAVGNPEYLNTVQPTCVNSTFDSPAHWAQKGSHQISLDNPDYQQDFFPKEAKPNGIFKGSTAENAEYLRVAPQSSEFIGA

EGFR L858R = EGFR L858R (Homo sapiens, UniProt P00533, L858R); experiment: pEGFR Y1068 ELISA assay, NIH3T3/EGFR_L858R cells; conditions: 3T3 cell line, 2 hrs compound treatment; read-out: pEGFRY1068 ELISA3T3 L858R IC50;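 further: sandwich ELISA of phospho-EGFR Tyr1068 in lysates of stably transfected NIH/3T3 pools after 2 h compound exposure at 37 °C, 11-point threefold dilution series run in duplicate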
Sequence of EGFR L858R (P00533 25-1210 L858R): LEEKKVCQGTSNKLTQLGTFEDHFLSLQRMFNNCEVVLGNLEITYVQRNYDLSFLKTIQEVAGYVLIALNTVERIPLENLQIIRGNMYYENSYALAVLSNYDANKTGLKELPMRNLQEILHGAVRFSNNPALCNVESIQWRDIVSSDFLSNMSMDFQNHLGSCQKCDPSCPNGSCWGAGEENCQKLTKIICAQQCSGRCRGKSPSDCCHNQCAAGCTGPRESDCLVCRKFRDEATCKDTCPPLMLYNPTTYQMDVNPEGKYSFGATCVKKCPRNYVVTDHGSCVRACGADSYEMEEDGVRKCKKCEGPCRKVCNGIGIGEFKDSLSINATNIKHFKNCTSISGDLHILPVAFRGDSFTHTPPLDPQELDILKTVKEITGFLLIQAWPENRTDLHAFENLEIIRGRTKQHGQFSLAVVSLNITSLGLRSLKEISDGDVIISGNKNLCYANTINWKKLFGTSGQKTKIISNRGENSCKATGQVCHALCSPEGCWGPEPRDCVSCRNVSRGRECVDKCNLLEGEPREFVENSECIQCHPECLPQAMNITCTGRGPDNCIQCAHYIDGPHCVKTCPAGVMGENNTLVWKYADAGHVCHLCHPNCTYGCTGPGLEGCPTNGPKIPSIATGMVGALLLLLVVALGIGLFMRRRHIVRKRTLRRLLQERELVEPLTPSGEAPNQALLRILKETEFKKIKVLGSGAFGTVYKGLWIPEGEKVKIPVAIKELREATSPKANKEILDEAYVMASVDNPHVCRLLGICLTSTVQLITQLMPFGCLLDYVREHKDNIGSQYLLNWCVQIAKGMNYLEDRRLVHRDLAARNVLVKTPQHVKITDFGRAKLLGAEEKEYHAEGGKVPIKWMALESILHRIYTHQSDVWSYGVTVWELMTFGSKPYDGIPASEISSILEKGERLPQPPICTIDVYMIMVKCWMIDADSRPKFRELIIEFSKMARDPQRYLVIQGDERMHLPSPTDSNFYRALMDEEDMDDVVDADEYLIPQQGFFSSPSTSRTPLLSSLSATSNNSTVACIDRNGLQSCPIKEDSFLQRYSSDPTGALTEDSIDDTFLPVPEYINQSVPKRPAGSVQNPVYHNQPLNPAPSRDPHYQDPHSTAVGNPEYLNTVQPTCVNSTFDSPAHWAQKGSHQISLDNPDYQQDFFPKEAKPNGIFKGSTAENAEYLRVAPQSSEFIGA

NIH3T3/EGFR_L858R = experiment: Cell proliferation assay (CellTiter-Glo), NIH3T3/EGFR_L858R; conditions: Mus musculus, NIH3T3, 120 h, 3T3 cell line, three to five days of compound treatment, read-out: 3T3 L858R IC50
Procedure: as §1

[2] = molecular target: T1, EGFR wildtype, endogenous (Homo sapiens, UniProt P00533); experiment: pEGFR Y1068 ELISA assay, A549 cells; conditions: full serum media, stimulated 10 min with EGF (40 ng/mL), read-out: pEGFRY1068 ELISAA549 IC50;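 further: sandwich ELISA of phospho-EGFR Tyr1068 in cell lysates, cells exposed to compound for 2 h before EGF stimulation, 11-point threefold dilution series run in duplicate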
T1 construct: A549 (EGFR wildtype, endogenous); host or cells: A549
T1 sequence (P00533 25-1210): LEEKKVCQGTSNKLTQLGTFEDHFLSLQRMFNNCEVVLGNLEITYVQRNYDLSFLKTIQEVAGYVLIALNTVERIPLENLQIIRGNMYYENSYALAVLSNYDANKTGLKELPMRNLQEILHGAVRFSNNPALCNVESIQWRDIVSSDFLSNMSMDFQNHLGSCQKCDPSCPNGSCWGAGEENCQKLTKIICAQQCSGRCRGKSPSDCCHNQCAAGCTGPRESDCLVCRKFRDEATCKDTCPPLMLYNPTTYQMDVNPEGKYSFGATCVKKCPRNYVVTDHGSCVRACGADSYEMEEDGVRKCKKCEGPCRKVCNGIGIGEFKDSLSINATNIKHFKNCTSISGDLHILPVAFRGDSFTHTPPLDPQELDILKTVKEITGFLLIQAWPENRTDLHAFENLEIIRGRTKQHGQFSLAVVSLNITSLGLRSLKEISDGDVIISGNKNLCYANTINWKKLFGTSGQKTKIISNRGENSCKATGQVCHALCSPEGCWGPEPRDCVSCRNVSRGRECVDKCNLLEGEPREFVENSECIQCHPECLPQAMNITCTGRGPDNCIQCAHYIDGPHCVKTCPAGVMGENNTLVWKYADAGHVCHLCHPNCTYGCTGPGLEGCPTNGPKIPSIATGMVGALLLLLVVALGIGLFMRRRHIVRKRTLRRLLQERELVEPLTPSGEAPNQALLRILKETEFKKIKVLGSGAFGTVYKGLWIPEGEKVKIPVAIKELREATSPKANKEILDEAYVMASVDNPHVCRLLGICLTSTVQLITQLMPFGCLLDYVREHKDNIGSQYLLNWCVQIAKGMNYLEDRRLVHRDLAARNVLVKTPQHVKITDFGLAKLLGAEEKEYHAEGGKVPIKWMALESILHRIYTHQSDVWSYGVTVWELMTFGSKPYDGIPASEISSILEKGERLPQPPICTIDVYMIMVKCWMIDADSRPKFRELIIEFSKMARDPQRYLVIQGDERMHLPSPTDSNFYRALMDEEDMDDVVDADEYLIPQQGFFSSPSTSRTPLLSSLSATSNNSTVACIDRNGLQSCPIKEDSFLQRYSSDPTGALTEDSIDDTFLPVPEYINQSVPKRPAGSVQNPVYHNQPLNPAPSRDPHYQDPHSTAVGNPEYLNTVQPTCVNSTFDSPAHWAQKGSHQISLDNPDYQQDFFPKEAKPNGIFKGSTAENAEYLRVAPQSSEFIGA

[3] = system: NIH3T3/EGFR_E746-A750_deletion+T790M; experiment: Cell proliferation assay (CellTiter-Glo), NIH3T3/EGFR_E746-A750_deletion+T790M; conditions: Mus musculus, NIH3T3, 120 h, 3T3 cell line, three to five days of compound treatment, read-out: 3T3 del_T790M IC50
Procedure: as §1

NIH3T3/EGFR L858R+T790M = experiment: Cell proliferation assay (CellTiter-Glo), NIH3T3/EGFR L858R+T790M; conditions: Mus musculus, NIH3T3, 120 h, 3T3 cell line, three to five days of compound treatment, read-out: 3T3 L858R_T790M IC50
EGFR L858R+T790M = EGFR L858R+T790M (Homo sapiens, UniProt P00533, L858R/T790M); experiment: pEGFR Y1068 ELISA assay, NIH3T3/EGFR_L858R+T790M cells; conditions: 3T3 cell line, 2 hrs compound treatment; read-out: pEGFRY1068 ELISA3T3T790M—L858R IC50;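 further: sandwich ELISA of EGFR phosphorylated at Tyr1068 in lysates of stably transfected NIH/3T3 cells, 11-point threefold dilution series run in duplicate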
Sequence of EGFR L858R+T790M (P00533 25-1210 T790M/L858R): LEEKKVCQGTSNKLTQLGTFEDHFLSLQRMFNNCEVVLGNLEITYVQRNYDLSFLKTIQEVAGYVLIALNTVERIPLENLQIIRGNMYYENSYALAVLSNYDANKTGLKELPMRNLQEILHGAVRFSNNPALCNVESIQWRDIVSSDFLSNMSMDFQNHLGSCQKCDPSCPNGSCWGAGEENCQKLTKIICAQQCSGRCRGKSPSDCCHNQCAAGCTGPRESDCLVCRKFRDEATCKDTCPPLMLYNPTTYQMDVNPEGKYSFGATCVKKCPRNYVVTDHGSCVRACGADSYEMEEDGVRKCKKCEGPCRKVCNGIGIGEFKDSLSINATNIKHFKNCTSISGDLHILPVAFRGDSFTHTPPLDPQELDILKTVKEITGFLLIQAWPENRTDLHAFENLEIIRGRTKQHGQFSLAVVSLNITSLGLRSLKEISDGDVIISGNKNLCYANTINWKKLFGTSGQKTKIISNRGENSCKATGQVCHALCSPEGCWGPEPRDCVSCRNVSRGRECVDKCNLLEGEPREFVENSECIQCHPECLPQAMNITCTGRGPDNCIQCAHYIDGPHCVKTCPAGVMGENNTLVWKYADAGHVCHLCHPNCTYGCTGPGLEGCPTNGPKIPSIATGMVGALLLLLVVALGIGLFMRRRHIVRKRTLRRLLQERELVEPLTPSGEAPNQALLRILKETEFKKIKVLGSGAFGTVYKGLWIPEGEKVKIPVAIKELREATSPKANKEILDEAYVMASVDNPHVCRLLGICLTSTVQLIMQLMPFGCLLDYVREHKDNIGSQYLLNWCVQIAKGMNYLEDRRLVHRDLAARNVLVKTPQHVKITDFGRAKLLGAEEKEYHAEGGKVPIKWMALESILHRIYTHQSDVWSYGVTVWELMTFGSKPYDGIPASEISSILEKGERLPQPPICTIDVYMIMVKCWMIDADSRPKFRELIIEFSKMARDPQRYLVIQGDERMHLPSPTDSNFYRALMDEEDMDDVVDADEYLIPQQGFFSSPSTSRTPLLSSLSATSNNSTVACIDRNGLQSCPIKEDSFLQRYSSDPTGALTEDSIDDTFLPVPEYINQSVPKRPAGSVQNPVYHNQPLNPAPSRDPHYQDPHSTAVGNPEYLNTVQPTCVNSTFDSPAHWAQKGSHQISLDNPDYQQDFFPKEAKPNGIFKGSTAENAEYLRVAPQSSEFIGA

Row | SMILES | IC50 [1] [nM] | IC50 (EGFR E746-A750 deletion) [nM] | IC50 (EGFR L858R) [nM] | IC50 (NIH3T3/EGFR_L858R) [nM] | IC50 [2] [nM] | IC50 [3] [nM] | IC50 (NIH3T3/EGFR L858R+T790M) [nM] | IC50 (EGFR L858R+T790M) [nM]
1 | C=CC(=O)N1CC[C@@H](Oc2nc(Nc3cnn(C)c3)nc3[nH]cc(Cl)c23)C1 [Example 65] | 100 to 1000 | 1170 | 510 | 100 to 1000 | > 10000 | 10 to 100 | 100 to 1000 | 44
2 | C=CC(=O)Nc1cccc(Oc2nc(Nc3cnn(C4CCN(C)C4)c3)nc3[nH]ccc23)c1 (stereo not drawn) [Example 34] | < 10 |  | 170 | 100 to 1000 | 4030 | < 10 | 10 to 100 | 14
3 | C=CC(=O)Nc1cccc(Oc2nc(Nc3cnn(C(C)C)c3)nc3[nH]ccc23)c1 [Example 31] | 10 to 100 |  | 105 | > 1000 | 947 | 10 to 100 | 10 to 100 | 11
4 | C=CC(=O)N[C@H]1C[C@H](Oc2nc(Nc3cnn(C)c3)nc3[nH]cc(Cl)c23)C1 [Example 63] | > 1000 | 1220 | 2010 | > 1000 | > 10000 | 100 to 1000 | > 1000 | 67
5 | C=CC(=O)N1C[C@@H]2CN(c3nc(Nc4cnn(C)c4)nc4[nH]cc(Cl)c34)C[C@@H]2C1 [Example 71] | 10 to 100 | 356 | 143 | 100 to 1000 | > 5460 | 10 to 100 | 100 to 1000 | 20
6 | C=CC(=O)N1C[C@H](COc2nc(Nc3cnn(C)c3)nc3[nH]cc(Cl)c23)[C@@H]([C@H](C)O)C1 (single isomer, unassigned) [Example 10] | 100 to 1000 | 1020 | 1810 | > 1000 | > 10000 | 10 to 100 | > 1000 | 80
7 | C=CC(=O)Nc1cccc(Oc2nc(Nc3ccn(C)n3)nc3[nH]cc(C#N)c23)c1 [Example 36] | 10 to 100 | 45 | 418 | > 1000 | > 10000 | 10 to 100 | 100 to 1000 | 20
8 | C=CC(=O)N(C)[C@H]1C[C@H](Oc2nc(Nc3cnn(CC(O)CN(C)C)c3)nc3[nH]cc(Cl)c23)C1 (stereo partly drawn) [Example 75] | 100 to 1000 |  | 3550 | > 1000 | > 10000 | 10 to 100 | 100 to 1000 | 69
9 | C=CC(=O)Nc1cccc(Oc2nc(Nc3cn(C)nc3C(F)(F)F)nc3[nH]ccc23)c1 [Example 32] | 10 to 100 | 98 | 47 | > 1000 | 1340 | < 10 | 10 to 100 | 9
10 | C=CC(=O)Nc1cccc(Oc2nc(Nc3cnn(CCN(C)C)c3)nc3[nH]ccc23)c1 [Example 2, N-(3-{[2-({1-[2-(dimethylamino)ethyl]-1H-pyrazol-4-yl}amino)-7H-pyrrolo[2,3-d]pyrimidin-4-yl]oxy}phenyl)prop-2-enamide] | < 10 | 29 | 141 | 100 to 1000 | 2920 | < 10 | < 10 | 11
11 | C=CC(=O)Nc1cccc(Oc2nc(Nc3cnn(C)n3)nc3[nH]ccc23)c1 [Example 40] | 10 to 100 | 44 | 99 | > 1000 | > 6380 | < 10 | 10 to 100 | 20
12 | C=CC(=O)N1C[C@H](COc2nc(Nc3cnn(C)c3)nc3[nH]cc(Cl)c23)[C@@H](OC)C1 [Example 9, 1-{(3R,4R)-3-[5-chloro-2-(1-methyl-1H-pyrazol-4-ylamino)-7H-pyrrolo[2,3-d]pyrimidin-4-yloxymethyl]-4-methoxy-pyrrolidin-1-yl}propenone trifluoroacetate] | 10 to 100 |  |  | 100 to 1000 |  | < 10 | 100 to 1000 | 
13 | C=CC(=O)Nc1cccc(Oc2nc(Nc3ccn(CC)n3)nc3[nH]ccc23)c1 [Example 22] | < 10 | 27 | 81 | 100 to 1000 | > 10000 | < 10 | 10 to 100 | 11
14 | C=CC(=O)N1CC(Oc2nc(Nc3cnn(C)c3)nc3[nH]cc(Cl)c23)C1 [Example 105] | 100 to 1000 |  | 490 | 100 to 1000 | > 10000 | 100 to 1000 | 100 to 1000 | 37
15 | C=CC(=O)N1C[C@H](COC)[C@@H](COc2nc(Nc3cnn(C)c3)nc3[nH]cc(Cl)c23)C1 [Example 74] | 10 to 100 |  |  | 100 to 1000 |  | 10 to 100 | 100 to 1000 | 
16 | C=CC(=O)N1C[C@H](COc2nc(Nc3cn(C)nc3CC)nc3[nH]cc(F)c23)[C@@H](OC)C1 [Example 68] | 100 to 1000 | 1060 | 208 | 100 to 1000 | > 10000 | 10 to 100 | 100 to 1000 | 42
17 | C=CC(=O)Nc1cccc(Oc2nc(Nc3cnn(C)c3)nc3[nH]ccc23)c1 [Example 35] | < 10 |  |  | 100 to 1000 |  | < 10 | < 10 | 
18 | C=CC(=O)N1CCOC2(CCN(c3nc(Nc4cnn(C)c4)nc4[nH]cc(Cl)c34)C2)C1 (stereo not drawn) [Example 76] | 100 to 1000 |  | 855 | > 1000 | > 10000 | 100 to 1000 | 100 to 1000 | 26
19 | C=CC(=O)N1CC[C@@H](COc2nc(Nc3cnn(C)c3)nc3[nH]cc(Cl)c23)C1 [Example 64] | < 10 |  |  | 10 to 100 |  | < 10 | 10 to 100 | 
20 | C=CC(=O)N1C[C@H](COc2nc(Nc3cnn([C@@H]4CCOC4)c3)nc3[nH]cc(Cl)c23)[C@@H](OC)C1 [Example 72] | 100 to 1000 |  |  | 100 to 1000 |  | 10 to 100 | 100 to 1000 | 

Reference: patent US9040547B2, “Pyrrolopyrimidine and purine derivatives” (PFIZER INC., priority 2011, dated 2015)
